# From patent publication US20010039287A1, “AROMATIC SULFONE HYDROXAMIC ACID METALLOPROTEASE INHIBITOR” (priority 1997, published 2001)
# Structures can show the parent of a compound that is named as a salt. Where two headings read alike, the source gives them in different places.
# Legend:
# Assay in all cases: biochemical
# recombinant human MMP-13 = recombinant human MMP-13 (Homo sapiens, UniProt P45452); details: read-out: MMP-13 IC50
# recombinant human MMP-1 = biological target: T1, recombinant human MMP-1 (Homo sapiens, UniProt P03956); details: read-out: MMP-1 IC50
# T1 construct: made in house; host or cells: transfected HT-1080 cells (provided by Dr. Harold Welgus, Washington University)
# T1 sequence (P03956 100-469): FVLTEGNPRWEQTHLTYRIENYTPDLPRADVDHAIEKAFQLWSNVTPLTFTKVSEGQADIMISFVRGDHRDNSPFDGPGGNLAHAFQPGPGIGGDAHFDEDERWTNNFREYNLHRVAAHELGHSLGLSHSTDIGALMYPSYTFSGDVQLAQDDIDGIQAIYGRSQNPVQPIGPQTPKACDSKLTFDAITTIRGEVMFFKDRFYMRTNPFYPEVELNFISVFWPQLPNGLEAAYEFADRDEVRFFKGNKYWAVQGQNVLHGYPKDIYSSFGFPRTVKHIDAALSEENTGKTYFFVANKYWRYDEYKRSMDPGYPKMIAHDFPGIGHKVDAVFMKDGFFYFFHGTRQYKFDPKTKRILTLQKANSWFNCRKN
# recombinant human MMP-2 = biological target: T2, recombinant human MMP-2 (Homo sapiens, UniProt P08253); details: read-out: MMP-2 IC50
# T2 sequence (P08253 110-660): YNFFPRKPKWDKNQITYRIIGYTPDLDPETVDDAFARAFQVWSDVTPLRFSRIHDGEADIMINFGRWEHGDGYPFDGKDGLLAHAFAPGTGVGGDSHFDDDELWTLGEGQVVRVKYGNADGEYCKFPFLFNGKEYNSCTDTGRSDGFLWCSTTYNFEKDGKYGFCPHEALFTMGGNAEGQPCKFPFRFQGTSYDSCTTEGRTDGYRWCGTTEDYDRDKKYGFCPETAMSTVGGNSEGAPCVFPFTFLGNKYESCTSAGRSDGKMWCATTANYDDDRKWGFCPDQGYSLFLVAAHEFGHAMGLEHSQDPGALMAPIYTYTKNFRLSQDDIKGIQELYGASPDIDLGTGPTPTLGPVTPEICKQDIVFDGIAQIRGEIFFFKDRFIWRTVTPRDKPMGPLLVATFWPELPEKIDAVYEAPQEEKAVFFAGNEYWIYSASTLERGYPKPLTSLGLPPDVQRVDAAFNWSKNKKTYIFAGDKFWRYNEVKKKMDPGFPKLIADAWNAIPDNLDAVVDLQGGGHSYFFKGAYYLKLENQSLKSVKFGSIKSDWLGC
# recombinant human MMP-9 = recombinant human MMP-9 (Homo sapiens, UniProt P14780); details: read-out: MMP-9 IC50
# recombinant human MMP-9, sequence (P14780 107-707 limits assumed): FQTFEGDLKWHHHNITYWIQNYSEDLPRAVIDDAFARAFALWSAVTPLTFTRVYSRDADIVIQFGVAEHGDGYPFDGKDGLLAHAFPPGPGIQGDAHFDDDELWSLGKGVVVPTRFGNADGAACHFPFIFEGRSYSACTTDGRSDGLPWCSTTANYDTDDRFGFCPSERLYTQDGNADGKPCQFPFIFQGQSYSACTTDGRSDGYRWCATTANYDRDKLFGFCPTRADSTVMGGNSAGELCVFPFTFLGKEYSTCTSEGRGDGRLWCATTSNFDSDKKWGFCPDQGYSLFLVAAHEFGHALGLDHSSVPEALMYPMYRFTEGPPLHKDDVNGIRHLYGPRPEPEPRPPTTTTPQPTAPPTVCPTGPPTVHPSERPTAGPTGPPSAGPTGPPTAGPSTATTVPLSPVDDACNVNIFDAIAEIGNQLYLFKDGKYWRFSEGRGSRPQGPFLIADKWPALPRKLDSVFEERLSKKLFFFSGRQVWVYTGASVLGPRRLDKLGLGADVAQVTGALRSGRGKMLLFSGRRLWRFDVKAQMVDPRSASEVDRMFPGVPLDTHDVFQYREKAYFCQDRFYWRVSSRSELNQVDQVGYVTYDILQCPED
Compound,IC50 (recombinant human MMP-13; Inhibition Table A),IC50 (recombinant human MMP-1; Inhibition Table A),IC50 (recombinant human MMP-2; Inhibition Table A),IC50 (recombinant human MMP-9; Inhibition Table A),IC50 (recombinant human MMP-13; Inhibition Table B),IC50 (recombinant human MMP-1; Inhibition Table B),IC50 (recombinant human MMP-2; Inhibition Table B),IC50 (recombinant human MMP-9; Inhibition Table B)
O=C(CS(=O)(=O)c1ccc(Oc2ccccc2)cc1)NO [Example 1],5.1 nM,6.6 µM,2.6 nM,31.6 nM,–,–,–,–
CC(C)(C(=O)NO)S(=O)(=O)c1ccc(Oc2ccccc2)cc1 [Example 2],0.25 nM,0.22 µM,0.1 nM,1.4 nM,–,–,–,–
CCCCOC1CCN(c2ccc(S(=O)(=O)C3(C(=O)NO)CCOCC3)cc2)CC1 [Example 16],2.4 nM,> 10 µM,100 nM,2500 nM,–,–,–,–
C#CCN1CCC(C(=O)NO)(S(=O)(=O)c2ccc(Sc3ccc(F)cc3)cc2)CC1 [Example 24],0.4 nM,> 10 µM,1 nM,3.7 nM,–,–,–,–
O=C(NO)C1(S(=O)(=O)c2ccc(Oc3ccc(-n4cncn4)cc3)cc2)CCOCC1 [Example 26],0.5 nM,7.7 µM,0.2 nM,7 nM,–,–,–,–
COCCN1CCC(C(=O)NO)(S(=O)(=O)c2ccc(Oc3ccccc3)cc2)CC1 [Example 30],–,–,–,–,0.1 nM,0.35 µM,0.1 nM,0.3 nM
"C#CCN1CCC(C(=O)NO)(S(=O)(=O)c2ccc(Oc3ccc(OC)c(OC)c3)cc2)CC1 [Example 38, 4-[[4-(3,4-dimethoxyphenoxy)phenyl]sulfonyl]-N-hydroxy-1-(2-propynyl)-4-piperidinecarboxamide, Monohydrochloride]",–,–,–,–,22 nM,> 10 µM,20 nM,135 nM
"CS(=O)(=O)N1CCC(C(=O)NO)(S(=O)(=O)c2ccc(Oc3ccc4c(c3)OCO4)cc2)CC1 [Example 42, 4-[[4-(1,3-benzodioxol-5-yloxy)phenyl]sulfonyl]-N-hydroxy-1-(methylsulfonyl)-4-piperidinecarboxamide]",–,–,–,–,0.4 nM,2.2 µM,0.2 nM,1.3 nM
"O=C(NO)C1(S(=O)(=O)c2ccc(N3CCC(Oc4ccc5c(c4)OCO5)CC3)cc2)CCOCC1 [Example 63, 4-[[4-[4-(1,3-Benzodioxol-5-yloxy)-1-piperidinyl]phenyl]sulfonyl]-tetrahydro-N-hydroxy-2H-pyran-4-carboxamide, Monohydrochloride]",–,–,–,–,1.5 nM,> 10 µM,18.1 nM,530 nM
"COc1ccc(Sc2ccc(S(=O)(=O)C3(C(=O)NO)CCOCC3)cc2)cc1 [Example 65, Tetrahydro-N-hydroxy-4-[[4-(4-methoxyphenylthio)phenyl]-sulfonyl]-2H-pyran-4-carboxamide]",–,–,–,–,0.7 nM,8 µM,0.6 nM,4.4 nM
"O=C(NO)C1(S(=O)(=O)c2ccc(NCc3ccccc3)cc2)CCOCC1 [Example 68, tetrahydro-N-hydroxy-4-[[4-[(4-phenylmethyl)amino]phenyl]-sulfonyl]-2H-pyran-4-carboxamide, Monohydrochloride]",–,–,–,–,6 nM,> 10 µM,5.3 nM,130 nM
"O=C(NO)C1(S(=O)(=O)c2ccc(Oc3cc(F)cc(F)c3)cc2)CCOCC1 [Example 70, 4-[[4-(3,5-difluorophenoxy)phenyl]sulfonyl]tetrahydro-N-hydroxy-2H-pyran-4-carboxamide]",–,–,–,–,0.8 nM,1.5 µM,0.2 nM,7.3 nM
"Cc1ccc(Oc2ccc(S(=O)(=O)C3(C(=O)NO)CN(C)CN(C)C3)cc2)cc1C [Example 78, 5-[4-(3,4-dimethylphenoxy)phenyl]sulfonyl-N^5-hydroxy-1,3-dimethylhexahydro-5-pyrimidinecarboxamide, Dihydrochloride]",–,–,–,–,10 nM,> 10 µM,6 nM,50 nM
"Cc1cc(Oc2ccc(S(=O)(=O)C3(C(=O)NO)CCN(CC(=O)O)CC3)cc2)ccc1Cl [Example 80, 4-[[4-(4-chloro-3-methylphenoxy)phenyl]sulfonyl]-4-(hydroxyamino)carbonyl]-1-piperidineacetic Acid, Monohydrochloride]",–,–,–,–,0.2 nM,3 µM,0.1 nM,1.8 nM
"Cc1cc(Oc2ccc(S(=O)(=O)C3(C(=O)NO)CCNCC3)cc2)ccc1F [Example 83, 4-[[4-(4-fluoro-3-methylphenoxy)phenyl]sulfonyl]-N-hydroxy-4-piperidine Carboxamide, Monohydrochloride]",–,–,–,–,1.5 nM,8 µM,1.2 nM,5 nM
"C#CCN1CCC(C(=O)NO)(S(=O)(=O)c2ccc(Oc3ccc(Cl)cc3)cc2)CC1 [Example 85, 4-[[4-(4-chlorophenoxy)-phenyl]sulfonyl]-N-hydroxy-1-(2-propynyl)-4-piperidinecarboxamide, Monohydrochloride]",–,–,–,–,< 0.1 nM,0.5 µM,< 0.1 nM,0.4 nM
"O=C(O)CN1CCC(C(=O)NO)(S(=O)(=O)c2ccc(Sc3ccccc3)cc2)CC1 [Example 87, 4-[(hydroxyamino)-carbonyl]-4-[[4-(phenylthio)phenyl]-sulfonyl]-1-piperidineacetic Acid, Monohydrochloride]",–,–,–,–,0.35 nM,7.2 µM,0.8 nM,13.9 nM

Compound,IC50 (recombinant human MMP-13; Inhibition Table A),IC50 (recombinant human MMP-1; Inhibition Table A),IC50 (recombinant human MMP-2; Inhibition Table A),IC50 (recombinant human MMP-9; Inhibition Table A),IC50 (recombinant human MMP-13; Inhibition Table B),IC50 (recombinant human MMP-1; Inhibition Table B),IC50 (recombinant human MMP-2; Inhibition Table B),IC50 (recombinant human MMP-9; Inhibition Table B)
O=C(NCc1ccc(F)cc1)C1CCN(c2ccc(S(=O)(=O)C3(C(=O)NO)CCOCC3)cc2)CC1 [Example 197],–,–,–,–,8 nM,7 µM,145 nM,–
O=C(C1CCCCC1)N1CCN(c2ccc(S(=O)(=O)C3(C(=O)NO)CCOCC3)cc2)CC1 [Example 200],–,–,–,–,17.5 nM,> 10 µM,24 nM,–
O=C(C1CCc2ccccc2C1)N1CCN(c2ccc(S(=O)(=O)C3(C(=O)NO)CCOCC3)cc2)CC1 (centres unmarked) [Example 201],–,–,–,–,13.6 nM,> 10 µM,22.4 nM,–
O=C(N1CCCCC1)N1CCN(c2ccc(S(=O)(=O)C3(C(=O)NO)CCOCC3)cc2)CC1 [Example 206],–,–,–,–,20 nM,> 10 µM,> 10 nM,–
O=C(NO)C1(S(=O)(=O)c2ccc(-c3ccccc3)cc2)CCOCC1 [Example 213],–,–,–,–,< 1 nM,0.31 µM,< 1 nM,–
O=C(NO)C1(S(=O)(=O)c2ccc(-c3ccsc3)cc2)CCOCC1 [Example 215],–,–,–,–,< 1 nM,0.25 µM,< 1 nM,–
O=C(NO)C1(S(=O)(=O)c2ccc(-c3cccc(C(F)(F)F)c3)cc2)CCOCC1 [Example 219],–,–,–,–,< 1 nM,> 10 µM,< 1 nM,–
O=C(NO)C1(S(=O)(=O)c2ccc(-c3cccc4ccccc34)cc2)CCOCC1 [Example 224],–,–,–,–,16.7 nM,> 10 µM,18.1 nM,–
Cc1ccccc1-c1ccc(S(=O)(=O)C2(C(=O)NO)CCOCC2)cc1 [Example 225],–,–,–,–,70 nM,> 10 µM,54 nM,–
CC(C)(C)c1ccc(-c2ccc(S(=O)(=O)C3(C(=O)NO)CCOCC3)cc2)cc1 [Example 226],–,–,–,–,6 nM,> 10 µM,18.6 nM,–
O=C(NO)C1(S(=O)(=O)c2ccc(-c3ccc4ccccc4c3)cc2)CCOCC1 [Example 227],–,–,–,–,< 1 nM,> 10 µM,< 1 nM,–
O=Cc1cccc(-c2ccc(S(=O)(=O)C3(C(=O)NO)CCOCC3)cc2)c1 [Example 228],–,–,–,–,< 1 nM,0.6 µM,< 1 nM,–
O=Cc1ccccc1-c1ccc(S(=O)(=O)C2(C(=O)NO)CCOCC2)cc1 [Example 230],–,–,–,–,> 100 nM,> 10 µM,> 100 nM,–
O=Cc1ccc(-c2ccc(S(=O)(=O)C3(C(=O)NO)CCOCC3)cc2)cc1 [Example 231],–,–,–,–,< 1 nM,0.65 µM,< 1 nM,–
Nc1cccc(-c2ccc(S(=O)(=O)C3(C(=O)NO)CCOCC3)cc2)c1 [Example 232],–,–,–,–,< 1 nM,< 0.1 µM,< 1 nM,–
"N,N-dimethyl-5-[4-[[tetrahydro-4-1[(hydroxyamino)-carbonyl]-2H-pyran-4-yl]sulfonyl]-phenoxy]-1H-indole-2-carboxamide, Trifluoroacetic Acid Salt [Example 124]",–,–,–,–,1.1 nM,1 µM,0.5 nM,–
